According to patent US7067500B2, “Betaines as adjuvants to susceptibility testing and antimicrobial therapy” (priority 1997, dated 2006):

Legend:
[1] = tested on: M. tuberculosis isolates ATCC 27294, 571/573-BAL, 061-TBR, 52–96-BOL, and 57–96-BOL; assay: Antibiotic screen with additional antibiotics in the presence and absence of CB-18; assay type: cell-based, Mycobacterium tuberculosis; conditions: ceftazidime alone (absence of PANTA) at 16 μg/ml final
Method: The experimental design of FIG. 16 was also used to examine the breadth of the CB-18 effect with respect to other, non-β-lactam antibiotics. In these experiments antibiotics (Sigma, St. Louis, Mo.) were manufactured as stock solutions in water or buffer and then diluted with reconstitution fluid and added to the culture bottles prior to inoculation. Nystatin (100 μg/ml final), polymixin B (300 units final), erthromycin (4 μg/ml final), oleandomycin (2 μg/ml final), penicillin G (8 μg/ml final), nalidixic acid (30 μg/ml final), lincomycin (2 μg/ml final), ceftriaxone (32 μg/ml final), and ceftazidime (16 μg/ml final) (ceftazidime was manufactured in 10% sodium bicarbonate) were tested on ATCC 27294, 571/573-BAL, 061-TBR, 52–96-BOL, and 57–96-BOL. All experiments used R.F. and P-caz as controls, and all bottles wherein CB-18 was added used a final concentration of 17 μg/ml. FIG. 28 presents the results of the 571/573-BAL isolate with erythromycin and ceftriaxone. FIG. 29 presents the results of the 061-TBR isolate with polymyxin B, oleandomycin, lincomycin, naldixic acid, penicillin G, and ceftriaxone. FIG. 30 presents the results of the 57–96-BOL isolate with naldixic acid, penicillin G, ceftazidime and ceftriaxone.

gram negative bacteria = assay: Antibiotic sensitivities of BACTEC 12B/PANTA contaminants (MicroScan panels); assay type: cell-based; conditions: ceftazidime at 8 μg/ml; contaminants of CB-18 processed specimens on 12B/PANTA
Excerpt: Preliminary studies designed to assess the nature of contaminants breaking through the BACTEC 12B liquid media supplemented with PANTA used discarded respiratory specimens (n=277) from Quest Diagnostics—Baltimore. (NOTE: the BACTEC 12B liquid culture system is one of the standard methods in the art for culturing mycobacteria, and PANTA is an antimicobial supplement containing polymyxin B, azlocillin, nalidixic acid, trimethoprim, and amphotericin B: this culture system is referred to herein as “12B/PANTA” (Becton Dickinson, Cockeysville, Md.)) Specimens were collected and processed with CB-18 according to the procedure above. Approximately 400–500 μl of each sediment was planted on 12B/PANTA. All contaminants were identified by morphology and/or gram stain and then differentiated as either oxidase/catalase, positive or negative. Contaminants were then speciated, and antibiotic sensitivities determined, using MicroScan® panels (Dade, West Sacramento, Calif.).

CC(C)(O/N=C(\C(=O)N[C@@H]1C(=O)N2C(C(=O)[O-])=C(C[n+]3ccccc3)CS[C@H]12)c1csc(N)n1)C(=O)O [ceftazidime]
effect on isolates relative to other antibiotics tested [1]: one of the least innocuous compounds
gram negative bacteria sensitive to ceftazidime (gram negative bacteria): 40 of the 48
